Values of other authors, collected in PubChem BioAssay AID1259409 (Chemical Carcinogenesis Research Information System (CCRIS), 2018).
Where “and” joins values, the source holds several entries; their conditions need not be identical. Identical values can stand only once.

Test system: rodent chemically induced tumor inhibition, incidence and multiplicity
Experiment: CCRIS tumor inhibitor studies

## CCCCC/C=C/CC/C=C/CCCCCCC(=O)O
Carcinogen: BENZO[A]PYRENE, 50-32-8, Dose [Inhibitor]: 0, 0.1 ML IN 0.1 ML OLIVE OIL 4 AND 2 D PRIOR TO CARCINOGEN DOSE (CYCLE REPEATED 4 X) (STUDY DURATION: 23 WK), Route [Inhibitor]: GAVAGE, Species: MOUSE, Strain/Sex: ICR/FEMALE, Target Tissue: Type of Lesion: STOMACH: PAPILLOMA, Dose [Carcinogen]: 2 MG IN 0.2 ML OLIVE OIL 1/WK FOR 4 WK
  tumour outcome (control, treated, inhibition, significance): 91%, 71%, 22%, p<0.05 and 96%, 96%, 0% and 100%, 71%, 29%, p<0.05

## COc1c2ccoc2cc2cc(C)oc(=O)c12
Carcinogen: 7,12-DIMETHYLBENZ[A]ANTHRACENE, 57-97-6, Dose [Inhibitor]: 0, 400 NMOL ONCE APPLIED 5 MIN PRIOR TO CARCINOGEN DOSE (STUDY DURATION: 25 WK), Route [Inhibitor]: DERMAL, Species: MOUSE, Strain/Sex: SENCAR, Target Tissue: Type of Lesion: SKIN: PAPILLOMA, Dose [Carcinogen]: 10 NMOL ONCE, Promoter: 12-O-TETRADECANOYLPHORBOL-13-ACETATE, 16561-29-8
  tumour outcome (control, treated, inhibition, significance): 96%, 96%, 0%, not significant
Carcinogen: BENZO[A]PYRENE, 50-32-8, Dose [Inhibitor]: 0, 400 NMOL ONCE APPLIED 5 MIN PRIOR TO CARCINOGEN DOSE (STUDY DURATION: 25 WK), Route [Inhibitor]: DERMAL, Species: MOUSE, Strain/Sex: SENCAR, Target Tissue: Type of Lesion: SKIN: PAPILLOMA, Dose [Carcinogen]: 200 NMOL ONCE, Promoter: 12-O-TETRADECANOYLPHORBOL-13-ACETATE, 16561-29-8
  tumour outcome (control, treated, inhibition, significance): 91%, 91%, 0%, not significant

## CC1CCC(=O)O1 (stereo not given)
Carcinogen: BENZO[A]PYRENE, 50-32-8, Dose [Inhibitor]: 0.034 MMOL/G IN DIET FOR 5 WK BEGINNING 1 WK PRIOR TO CARCINOGEN DOSE (STUDY DURATION: 21 WK), Route [Inhibitor]: ORAL, Species: MOUSE, Strain/Sex: ICR/FEMALE, Target Tissue: Type of Lesion: FORESTOMACH: TUMOR, Dose [Carcinogen]: 1 MG IN 0.2 ML CORN OIL 2/WK FOR 4 WK, Promoter: NONE USED
  tumour outcome (control, treated, inhibition, significance): (95%, 95%, 0%, not significant

## C/C(=C\c1ccc(C(=O)O)cc1)c1ccc2c(c1)SCCC2(C)C
Carcinogen: 7,12-DIMETHYLBENZ[A]ANTHRACENE, 57-97-6, Dose [Inhibitor]: 1.7 NMOL IN 0.2 ML ACETONE 1 HR PRIOR TO EACH PROMOTER DOSE FOR 12 WK (STUDY DURATION: 14 WK), Route [Inhibitor]: DERMAL, Species: MOUSE, Strain/Sex: SENCAR/FEMALE, Target Tissue: Type of Lesion: SKIN: PAPILLOMA, Dose [Carcinogen]: 200 NMOL IN 0.2 ML ACETONE ONCE, Promoter: 12-O-TETRADECANOYLPHORBOL-13-ACETATE, 16561-29-8
  tumour outcome (control, treated, inhibition, significance): 100%, 70%, 30%, not calculated
Carcinogen: 7,12-DIMETHYLBENZ[A]ANTHRACENE, 57-97-6, Dose [Inhibitor]: 1.7 NMOL IN 0.2 ML ACETONE 1 HR PRIOR TO EACH PROMOTER DOSE FOR 20 WK (STUDY DURATION: 22 WK), Route [Inhibitor]: DERMAL, Species: MOUSE, Strain/Sex: CD-1/FEMALE, Target Tissue: Type of Lesion: SKIN: PAPILLOMA, Dose [Carcinogen]: 200 NMOL IN 0.2 ML ACETONE ONCE, Promoter: 12-O-TETRADECANOYLPHORBOL-13-ACETATE, 16561-29-8
  tumour outcome (control, treated, inhibition, significance): 94%, 67%, 29%, not calculated
Carcinogen: 7,12-DIMETHYLBENZ[A]ANTHRACENE, 57-97-6, Dose [Inhibitor]: 17 NMOL IN 0.2 ML ACETONE 1 HR PRIOR TO EACH PROMOTER DOSE FOR 12 WK (STUDY DURATION: 14 WK), Route [Inhibitor]: DERMAL, Species: MOUSE, Strain/Sex: SENCAR/FEMALE, Target Tissue: Type of Lesion: SKIN: PAPILLOMA, Dose [Carcinogen]: 200 NMOL IN 0.2 ML ACETONE ONCE, Promoter: 12-O-TETRADECANOYLPHORBOL-13-ACETATE, 16561-29-8
  tumour outcome (control, treated, inhibition, significance): 100%, 72%, 28%, not calculated
Carcinogen: 7,12-DIMETHYLBENZ[A]ANTHRACENE, 57-97-6, Dose [Inhibitor]: 17 NMOL IN 0.2 ML ACETONE 1 HR PRIOR TO EACH PROMOTER DOSE FOR 20 WK (STUDY DURATION: 22 WK), Route [Inhibitor]: DERMAL, Species: MOUSE, Strain/Sex: CD-1/FEMALE, Target Tissue: Type of Lesion: SKIN: PAPILLOMA, Dose [Carcinogen]: 200 NMOL IN 0.2 ML ACETONE ONCE, Promoter: 12-O-TETRADECANOYLPHORBOL-13-ACETATE, 16561-29-8
  tumour outcome (control, treated, inhibition, significance): 94%, 33%, 65%, not calculated
Carcinogen: 7,12-DIMETHYLBENZ[A]ANTHRACENE, 57-97-6, Dose [Inhibitor]: 170 NMOL IN 0.2 ML ACETONE 1 HR PRIOR TO EACH PROMOTER DOSE FOR 12 WK (STUDY DURATION: 14 WK), Route [Inhibitor]: DERMAL, Species: MOUSE, Strain/Sex: SENCAR/FEMALE, Target Tissue: Type of Lesion: SKIN: PAPILLOMA, Dose [Carcinogen]: 200 NMOL IN 0.2 ML ACETONE ONCE, Promoter: 12-O-TETRADECANOYLPHORBOL-13-ACETATE, 16561-29-8
  tumour outcome (control, treated, inhibition, significance): 100%, 0%, 100%, not calculated
Carcinogen: 7,12-DIMETHYLBENZ[A]ANTHRACENE, 57-97-6, Dose [Inhibitor]: 170 NMOL IN 0.2 ML ACETONE 1 HR PRIOR TO EACH PROMOTER DOSE FOR 20 WK (STUDY DURATION: 22 WK), Route [Inhibitor]: DERMAL, Species: MOUSE, Strain/Sex: CD-1/FEMALE, Target Tissue: Type of Lesion: SKIN: PAPILLOMA, Dose [Carcinogen]: 200 NMOL IN 0.2 ML ACETONE ONCE, Promoter: 12-O-TETRADECANOYLPHORBOL-13-ACETATE, 16561-29-8
  tumour outcome (control, treated, inhibition, significance): 94%, 0%, 100%, not calculated

## O=C(O)c1cc(=O)[nH]c(=O)[nH]1
Carcinogen: URETHANE, 51-79-6, Dose [Inhibitor]: 0.1 MG/GM BW AS A 1% SUSPENSION IN DISTILLED WATER ONCE 14 WK OF AGE SIMULTANEOUS WITH CARCINOGEN TREATMENT (STUDY DURAT, Route [Inhibitor]: INTRAPERITONEAL, Species: MOUSE, Strain/Sex: SWR/MALE, Target Tissue: Type of Lesion: LUNG: ADENOMA, Dose [Carcinogen]: 1 MG/G BW IN DISTILLED WATER ONCE, Promoter: NONE USED
  tumour outcome (control, treated, inhibition, significance): 100%, 100%, 0%, not significant
Carcinogen: URETHANE, 51-79-6, Dose [Inhibitor]: 0.1 MG/GM BW AS A 1% SUSPENSION IN DISTILLED WATER TWICE AT 13 WK OF AGE GIVEN 24 HR APART STARTING 24 HR PRIOR TO CARCI, Route [Inhibitor]: INTRAPERITONEAL, Species: MOUSE, Strain/Sex: SWR/MALE, Target Tissue: Type of Lesion: LUNG: ADENOMA, Dose [Carcinogen]: 0.5 MG/GM BW IN DISTILLED WATER ONCE AT SAME TIME AS LAST AGENT TREATMENT, Promoter: NONE USED
  tumour outcome (control, treated, inhibition, significance): 83%, 100%, -20%, not significant
Carcinogen: URETHANE, 51-79-6, Dose [Inhibitor]: 0.1 MG/GM BW AS A 1% SUSPENSION IN DISTILLED WATER TWICE AT 22 WK OF AGE GIVEN 24 HR APART STARTING 24 HR PRIOR TO CARCI, Route [Inhibitor]: INTRAPERITONEAL, Species: MOUSE, Strain/Sex: SWR/MALE, Target Tissue: Type of Lesion: LUNG: ADENOMA, Dose [Carcinogen]: 0.5 MG/GM BW IN DISTILLED WATER ONCE AT SAME TIME AS LAST AGENT TREATMENT, Promoter: NONE USED
  tumour outcome (control, treated, inhibition, significance): 71%, 71%, 0%, not significant

## CCCCC(C)(O)C/C=C/[C@H]1[C@H](O)CC(=O)[C@@H]1CCCCCCC(=O)OC (stereo not given in full)
Carcinogen: N-METHYL-N'-NITRO-N-NITROSOGUANIDINE, 70-25-7, Dose [Inhibitor]: 0, 200 UG/KG/D IN DRINKING WATER FOR 52 WK CONCURRENTLY WITH CARCINOGEN TREATMENT (STUDY DURATION: 52 WK), Route [Inhibitor]: ORAL, Species: RAT, Strain/Sex: SPRAGUE-DAWLEY/MALE, Target Tissue: Type of Lesion: GLANDULAR STOMACH: ADENOCARCINOMA, Dose [Carcinogen]: 120 MG/L IN DRINKING WATER FOR 52 WK, Promoter: NONE USED
  tumour outcome (control, treated, inhibition, significance): 9/15 (60%), 5/20 (25%), 58%, p<0.05

## COc1cc2c(cc1OC)[C@]1(O)C(=O)c3ccc4c(c3O[C@@H]1CO2)C=CC(C)(C)O4
Carcinogen: 7,12-DIMETHYLBENZ[A]ANTHRACENE, 57-97-6, Dose [Inhibitor]: 0, 85 NMOL 2/WK BEGINNING 1 WK POST CARCINOGEN DOSE (STUDY DURATION: 20 WK), Route [Inhibitor]: DERMAL, Species: MOUSE, Strain/Sex: ICR/FEMALE, Target Tissue: Type of Lesion: SKIN: PAPILLOMA, Dose [Carcinogen]: 390 NMOL, Promoter: 12-O-TETRADECANOYLPHORBOL-13-ACETATE, 16561-29-8
  tumour outcome (control, treated, inhibition, significance): 100%, 40%, 60%, not calculated
